According to patent publication US12454678B2, “Muscle differentiation-promoting actions of ergothioneine, ascorbic acid 2-glucoside, ascorbic acid, and combination thereof” (NAGASE & CO., LTD., priority 2018, dated 2025):

Experiments:
Assay type in all cases: cell-based
[1] = tested on: MyH2 mRNA expression in C2C12 cells; assay: MyH2 mRNA expression level of C2C12 cells (real time PCR, corrected by PPIA); conditions: for MyH2 mRNA expression: procedure of Example 3, vs NT
Experimental: (§1) C2C12 cells were suspended in a growth medium to adjust the cell density to 65×10^4 cells/ml. Then, 1.5 ml of the cell suspension was added to each well of a 6-well plate, and the cells were cultured in a 5% CO2 incubator for 24 hours. The growth medium was removed, and 2 ml of a differentiation medium containing 0.5 mM EGT was added. A control group (NT) was subjected to the exactly same operation except that EGT was not contained. The culture medium was removed after 2 days, 1 ml of TRIzol (Invitrogen Corporation) was added to each well, and RNA was collected according to the protocol of TRIzol. The collected RNA was converted into complementary strand DNA with a reverse transcription kit (Takara Bio Inc.). The following primer DNAs (MyH2 [NM_001039545]: forward 5′[…]3′ (SEQ ID NO: 5), reverse 5′[…]3′ (SEQ ID NO: 6), ACTA1 [NM_001272041]: forward 5′[…]3′ (SEQ ID NO: 7), PPIA [NM_008907]: forward 5′[…]3′ (SEQ ID NO: 3), and reverse 5′[…]3′ (SEQ ID NO: 4)) were added to the obtained complementary strand DNA, and the gene expression levels of MyH2, ACTA1, and PPIA were measured by subjecting the mixture to a CFX96 Touch™ real time PCR analysis system (Bio-Rad Laboratories, Inc.) using TB Green™ Premix Ex Tag™ II (Takara Bio Inc.) according to the protocol thereof. Correction was performed by dividing the amounts of expressed MyH2 and ACTA1 mRNA by the amount of expressed PPIA mRNA to calculate the myosin heavy chain 2 (MyH2) and a actin (ACTA1) mRNA expression levels. […] The MyH2 mRNA and ACTA1 mRNA expression levels increased by adding EGT.
C2C12 cells were suspended in a growth medium to adjust the cell density to 65×10^4 cells/ml. Then, 1.5 ml of the cell suspension was added to each well of a 6-well plate, and the cells were cultured in a 5% CO2 incubator for 24 hours. The growth medium was removed, and 2 ml of a differentiation medium containing 0.5 mM EGT, 25 μM edaravone (hereinafter, abbreviated to Edv), or 50 μM Edv was added to each well. Edv is a powerful synthetic antioxidant. The culture medium was exchanged for a new culture medium every other day, and the culture was continued. A control group (NT) was subjected to the exactly same operation except that EGT was not contained. The culture medium was removed after 4 days, 1 ml of TRIzol (Invitrogen Corporation) was added to each well, and RNA was collected according to the protocol of TRIzol. The complementary strand DNA of the mRNA was obtained by treating the collected RNA with a reverse transcription kit (Takara Bio Inc.). The following primer DNAs (MyH2 [NM_001039545]: forward 5′[…]3′ (SEQ ID NO: 5), reverse 5′[…]3′ (SEQ ID NO: 6), PPIA [NM_008907]: forward 5′[…]3′ (SEQ ID NO: 3), and reverse 5′[…]3′ (SEQ ID NO: 4)) were added to the obtained complementary strand DNA, and the gene expression levels of MyH2 and PPIA were measured by subjecting the mixture to a CFX96 Touch™ real time PCR analysis system (Bio-Rad Laboratories, Inc.) using TB Green™ Premix Ex Tag™ II Kit (Takara Bio Inc.) according to the protocol thereof. Correction was performed by dividing the amount of expressed MyH2 mRNA by the amount of expressed PPIA mRNA to calculate the MyH2 mRNA expression level.
The amounts of MyH2 and ACTA1 mRNA expression of C2C12 cells when the differentiation medium containing only EGT was used, when the differentiation medium containing EGT and AG was used, and when the differentiation medium containing only AG was used were investigated. AA2G(R) produced by Hayashibara Co., Ltd. was used as AG. […]

[2] = tested on: ACTA1 mRNA expression in C2C12 cells; assay: ACTA1 mRNA expression level of C2C12 cells (real time PCR, corrected by PPIA); conditions: for ACTA1 mRNA expression: procedure of Example 3, vs NT
Experimental: as §1
The amounts of MyH2 and ACTA1 mRNA expression of C2C12 cells when the differentiation medium containing only EGT was used, when the differentiation medium containing EGT and AG was used, and when the differentiation medium containing only AG was used were investigated. AA2G(R) produced by Hayashibara Co., Ltd. was used as AG. The concentration of EGT in the differentiation medium was 0.5 mM, and the concentration of AG was 1.0 mM. The experiment procedure was the same as that of Example 3. […]

[3] = tested on: MyoD mRNA expression in C2C12 cells; assay: MyoD mRNA expression level of C2C12 cells (real time PCR, corrected by PPIA); conditions: 0.1 mM or 0.5 mM EGT, after 2 days
Experimental: C2C12 cells were suspended in a growth medium to adjust the cell density to 65×10^4 cells/ml. Then, 1.5 ml of the cell suspension was added to each well of a 6-well plate, and the cells were cultured in a 5% CO2 incubator for 24 hours. The growth medium was removed, and 2 ml of a differentiation medium containing 0.1 mM or 0.5 mM EGT was then added to each well. A control group (hereinafter abbreviated to NT) was subjected to the exactly same operation except that EGT was not contained. The culture medium was removed after 2 days, 1 ml of TRIzol (Invitrogen Corporation) was added to each well, and the cells were dissolved. The cell solution was collected in an Eppendorf tube, and RNA was collected according to the protocol of TRIzol. The complementary strand DNA of the mRNA was obtained by treating the collected RNA with a reverse transcription kit (Takara Bio Inc.). The following primer DNAs (MyoD [NM_010866]: forward 5[…]3′ (SEQ ID NO: 1), reverse 5′[…]3′ (SEQ ID NO: 2), PPIA [NM_008907]: forward 5′[…]3′ (SEQ ID NO: 3), and reverse 5′[…]3′ (SEQ ID NO: 4)) were added to the obtained complementary strand DNA, and the gene expression levels of MyoD and PPIA were measured by subjecting the mixture to a CFX96 Touch™ real time PCR analysis system (Bio-Rad Laboratories, Inc.) using TB Green™ Premix Ex Taq™ II (Takara Bio Inc.) according to the protocol thereof. […]

C2C12 cells = assay: Microscopic observation of muscle differentiation of C2C12 cells in differentiation medium; conditions: 0.5 mM EGT in differentiation medium, sixth day, vs control without EGT
Experimental: C2C12 cells were suspended in a 10% fetal calf serum-containing Dulbecco's modified Eagle's medium (hereinafter, called a growth medium) to adjust the cell density to 65×10^4 cells/ml. Then, 1.5 ml of the cell suspension was added to each well of a 6-well plate, and the cells were cultured in a 5% CO2 incubator for 24 hours. The growth medium was removed, and 2 ml of 2% horse serum-containing Dulbecco's modified Eagle's medium containing 0.5 mM EGT (hereinafter, called a differentiation medium) was then added to each well. The differentiation medium was exchanged for a new culture medium every other day, and the culture was continued. A control group was subjected to the exactly same operation except that EGT was not contained. The forms of the cells were observed and photographed through a microscope (NIKON CORPORATION: Eclipse Ts2) on the sixth day after exchange for the differentiation medium.

In the case of `CC1=NN(c2ccccc2)C(=O)C1` [Edv, edaravone, reference compound], the “MyH2 mRNA expression level (relative to NT = 1)” value ([1]; 25 μM or 50 μM Edv, after 4 days) is reported as “did not affect” and the “MyH2 mRNA expression level (relative to NT = 1)” value ([1]; 25 μM or 50 μM Edv, after 4 days, listed as edaravone) is reported as “does not influence”.

With `O=C1O[C@H]([C@@H](O)CO)C(O)=C1O` [VC, ascorbic acid] the “MyH2 mRNA expression” value ([1]; only VC, 0.5 mM) was “increased” and the “ACTA1 mRNA expression” value ([2]; only VC, 0.5 mM) was “increased”.

For `C[N+](C)(C)[C@@H](Cc1c[nH]c(=S)[nH]1)C(=O)[O-]` [EGT, Ergothioneine], the “MyoD mRNA expression level (relative to NT = 1)” value [3] was “increased depending on the concentration of EGT”, the “MyH2 mRNA expression level (relative to NT = 1)” value ([1]; 0.5 mM EGT, after 2 days) was “increased” and the “differentiation from C2C12 cells to muscle cells / myotube cell formation” value (C2C12 cells) was “more myotube cells were formed”. For the same compound, the “ACTA1 mRNA expression level (relative to NT = 1)” value ([2]; 0.5 mM EGT, after 2 days) was “increased”.

`O=C1O[C@H]([C@@H](O)CO)C(O)=C1O[C@H]1O[C@H](CO)[C@@H](O)[C@H](O)[C@H]1O` [AG, ascorbic acid 2-glucoside] was tested, and the “MyH2 mRNA expression” value ([1]; only AG, 1.0 mM) was “increased” and the “ACTA1 mRNA expression” value ([2]; only AG, 1.0 mM) was “increased”.
